{"source": "patent US8536188B2", "about": "“Dosing regimens for treatment of proliferative disorders comprising administration of sapacitabine” (Cyclacel Limited, priority 2007, dated 2013)", "origin": "cited, not measured here", "key": {"[1]": {"target": "cytidine deaminase (Homo sapiens, UniProt P32320)", "sequence (P32320 whole entry, species assumed)": "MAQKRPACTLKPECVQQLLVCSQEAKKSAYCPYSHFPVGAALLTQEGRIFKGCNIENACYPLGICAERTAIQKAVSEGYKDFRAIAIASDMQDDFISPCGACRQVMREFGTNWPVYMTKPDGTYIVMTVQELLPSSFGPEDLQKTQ", "conditions": "compared with ara-C"}, "[2]": {"system": "human tumour cells from various organs"}, "[3]": {"system": "DNA polymerase"}, "[4]": {"system": "CTCL", "conditions": "CTCL patients"}, "[5]": {"conditions": "in vivo"}, "[6]": {"conditions": "single dose in rodents; repeat dose up to 3 months in mice and dogs"}, "[7]": {"system": "colon cancer", "conditions": "model of colon cancer"}, "[8]": {"system": "P388 leukemia"}, "[9]": {"system": "ara-C-resistant tumour cell lines"}, "[10]": {"system": "cancer cell lines, including those lacking deoxycytidine kinase", "conditions": "variety of cancer cell lines"}, "[11]": {"conditions": "phase I, patients with a variety of cancers"}, "[12]": {"system": "human tumour xenograft"}, "[13]": {"system": "NSCLC", "conditions": "10 mg/m^2 intravenously over 30 minutes every three weeks"}}, "data": [{"smiles": "N#C[C@H]1[C@H](O)[C@@H](CO)O[C@H]1n1ccc(N)nc1=O", "note": "[CNDAC, 2′-C-Cyano-2′-deoxy-β-D-arabino-pentafuranosylcytosine]", "values": [{"measurement": "substrate of cytidine deaminase", "setting": "[1]", "result": "weak substrate"}, {"measurement": "activity against human tumour cells", "setting": "[2]", "result": "broad spectrum of activity"}]}, {"smiles": "N#CC1C(O)C(COP(=O)(O)OP(=O)(O)OP(=O)(O)O)OC1n1ccc(N)nc1=O", "note": "(centres unmarked) [CNDACTP, CNDAC-triphosphate]", "values": [{"measurement": "inhibition of DNA polymerase", "setting": "[3]", "result": "potent inhibition"}]}, {"smiles": "Nc1ccn([C@@H]2O[C@H](CO)[C@@H](O)C2(F)F)c(=O)n1", "note": "[Gemcitabine, gemcitabine]", "values": [{"measurement": "response rate", "setting": "[4]", "result": "60-70%"}]}, {"smiles": "CCCCCCCCCCCCCCCC(=O)Nc1ccn([C@@H]2O[C@H](CO)[C@@H](O)[C@@H]2C#N)c(=O)n1", "note": "[sapacitabine, 2′-cyano-2′-deoxy-N^4-palmitoyl-1-β-D-arabinofuranosylcytosine]", "values": [{"measurement": "oral bioavailability", "setting": "[5]", "result": "good"}, {"measurement": "major toxicities", "setting": "[6]", "result": "hematopoietic, gastrointestinal, and testicular"}, {"measurement": "anticancer activity", "setting": "[7]", "result": "strong anticancer activity"}, {"measurement": "increasing survival, compared with gemcitabine or 5-FU", "setting": "[7]", "result": "superior to either gemcitabine or 5-FU"}, {"measurement": "preventing the spread of colon cancer metastases to the liver, compared with gemcitabine or 5-FU", "setting": "[7]", "result": "superior to either gemcitabine or 5-FU"}, {"measurement": "activity in vivo against resistant P388 leukemia cell lines", "setting": "[8]; P388 resistant to mitomycin C, vincristine, 5-FU or cisplatin", "result": "active"}, {"measurement": "antitumour activity compared with 5′-DFUR and gemcitabine", "setting": "[8]; mouse P388 leukemia model", "result": "much more potent antitumour activity than 5′-DFUR and gemcitabine"}, {"measurement": "cross-resistance to ara-C-resistant tumour cell lines", "setting": "[9]", "result": "partial cross-resistance"}, {"measurement": "cytotoxicity of the parent drug", "setting": "[10]", "result": "cytotoxic"}, {"measurement": "dose limiting toxicity", "setting": "[11]", "result": "myelosuppression"}, {"measurement": "tolerability", "setting": "[11]", "result": "well tolerated"}, {"measurement": "effect on tumour xenografts", "setting": "[12]; gastric, mammary, lung, colorectal and hepatic tumour xenografts", "result": "tumour regressions were observed"}, {"measurement": "antitumour activity compared with 5′-DFUR and gemcitabine", "setting": "[12]; human xenografts of poorly differentiated gastric adenocarcinoma", "result": "much more potent antitumour activity than 5′-DFUR and gemcitabine"}, {"measurement": "antitumour activity in human tumour xenograft models", "setting": "[12]; variety of tumours", "result": "active against a variety of tumours"}, {"measurement": "activity against human tumour cells", "setting": "[2]", "result": "broad spectrum of activity"}]}, {"smiles": "Nc1ccn([C@@H]2CO[C@H](CO)O2)c(=O)n1", "note": "[troxacitabine]", "values": [{"measurement": "activity in NSCLC", "setting": "[13]", "result": "little activity"}]}]}
